Like-named read-outs stand apart in the source and are kept apart here.
Experiments:
[1] = target: T1, JAK1 (recombinant purified GST-tagged catalytic domain) (Homo sapiens (Human), UniProt P23458);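 further: biochemical assay with HTRF read-out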
[2] = target: T1, JAK1 (recombinant purified GST-tagged catalytic domain); experiment: biochemical
[3] = target: JAK2 (recombinant purified GST-tagged catalytic domain) (Homo sapiens (Human), UniProt O60674); experiment: biochemical;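 further: biochemical JAK kinase assay with HTRF detection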
Sequence of JAK2 (recombinant purified GST-tagged catalytic domain) (O60674 849-1124): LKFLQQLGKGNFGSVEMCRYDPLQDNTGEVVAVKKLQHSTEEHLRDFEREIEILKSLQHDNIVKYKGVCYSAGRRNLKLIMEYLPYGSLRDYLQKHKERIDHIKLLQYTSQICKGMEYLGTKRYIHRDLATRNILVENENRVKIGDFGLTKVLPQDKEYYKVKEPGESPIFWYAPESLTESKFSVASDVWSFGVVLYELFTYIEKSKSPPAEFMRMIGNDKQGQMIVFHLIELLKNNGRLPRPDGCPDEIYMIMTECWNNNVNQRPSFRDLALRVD

T1 sequence (P23458 875-1153): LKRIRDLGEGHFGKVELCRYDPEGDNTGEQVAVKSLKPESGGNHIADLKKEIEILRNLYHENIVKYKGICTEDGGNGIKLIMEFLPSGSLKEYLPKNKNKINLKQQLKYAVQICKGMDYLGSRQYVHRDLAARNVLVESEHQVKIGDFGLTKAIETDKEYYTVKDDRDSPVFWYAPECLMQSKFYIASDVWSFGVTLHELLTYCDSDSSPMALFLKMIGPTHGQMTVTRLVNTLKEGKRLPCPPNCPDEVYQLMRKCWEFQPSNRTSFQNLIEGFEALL

Row | SMILES | IC50 [1] [nM] | IC50 [2] [nM] | IC50 [3] [nM]
1 | CC(C)(C)OC(=O)C1CCC(n2cc(C(N)=O)c(Nc3ccc(S(=O)(=O)C(F)(F)F)cc3)n2)C(C#N)C1 (centres unmarked) [Example 17-2, tert-butyl 4-[4-carbamoyl-3-({4-[(trifluoromethyl)sulfonyl]phenyl}amino)-1H-pyrazol-1-yl]-3-cyanocyclohexanecarboxylate] | 23 |  | 
2 | N#C[C@H]1C[C@@H]([N+]2(CC3CC3)CCC2)CC[C@@H]1n1cc(C(N)=O)c(Nc2ccc(Cl)cc2)n1 [Example 31-5, 1-[(1S,3S,4S)-4-{4-carbamoyl-3-[(4-chlorophenyl)amino]-1H-pyrazol-1-yl}-3-cyanocyclohexyl]-1-(cyclopropylmethyl)azetidinium] | 0.85 |  | 
3 | CC1(C)CN([C@H]2CC[C@H](n3cc(C(N)=O)c(Nc4ccnc(F)c4)n3)[C@@H](C#N)C2)C1 (single isomer, unassigned) [Example 28-134, 1-[(1S,2S,4S or 1R,2R,4R )-2-cyano-4-(3,3-dimethylazetidin-1-yl)cyclohexyl]-3-[(2-fluoropyridin-4-yl)amino]-1H-pyrazole-4-carboxamide] | 1 |  | 
4 | C[C@H](N[C@H]1CC[C@H](n2cc(C(N)=O)c(Nc3ccc(Cl)c(F)c3)n2)[C@@H](C#N)C1)C1CC1 (single isomer, unassigned) [Example 28-71, 3-[(4-chloro-3-fluorophenyl)amino]-1-[(1S,2S,4S or 1R,2R,4R)-2-cyano-4-{[(1S or 1R)-1-cyclopropylethyl]amino}cyclo-hexyl]-1H-pyrazole-4-carboxamide] |  | 2 | 97
5 | N#C[C@H]1C[C@@H](C(=O)N2CC3(COC3)C2)CC[C@@H]1n1cc(C(N)=O)c(Nc2ccc(Cl)cc2)n1 (single isomer, unassigned) [Example 35-37, 3-[(4-chlorophenyl)amino]-1-[(1S,2S,4S or 1R,2R,4R)-2-cyano-4-(2-oxa-6-azaspiro[3.3]hept-6-ylcarbonyl)cyclohexyl]-1H-pyrazole-4-carboxamide] |  | 43 | > 500

Second part, the molecule after the results:

Row | IC50 [1] [nM] | IC50 [2] [nM] | IC50 [3] [nM] | SMILES
6 |  | 0.3 | 3 | N#C[C@H]1C[C@H](O)CC[C@@H]1n1cc(C(N)=O)c(Nc2ccc([C@@H](O)C(F)(F)F)cc2)n1 (single isomer, unassigned) [Example 25-15, 1-[(1S,2S,4R or 1R,2R,4S)-2-cyano-4-hydroxycyclohexyl]-3-({4-[(1R or 1S)-2,2,2-trifluoro-1-hydroxyethyl]phenyl}amino)-1H-pyrazole-4-carboxamide]
7 |  | 0.7 | 3 | CC(C)(c1ccc(Nc2nn([C@H]3CC[C@H](O)C[C@@H]3C#N)cc2C(N)=O)cc1)C(O)C(F)(F)F (single isomer, unassigned) [Example 33-16, 1-[(1S,2S,4S or 1R,2R,4R)-2-cyano-4-hydroxycyclohexyl]-3-{[4-(3,3,3-trifluoro-(2R or 2S)-hydroxy-1,1-dimethylpropyl)phenyl]amino}-1H-pyrazole-4-carboxamide]
8 |  | 0.5 | 5 | CS(=O)(=O)N[C@H]1CC[C@H](n2cc(C(N)=O)c(Nc3ccc(Cl)cc3)n2)[C@@H](C#N)C1 (racemic) [Example 38-4, 3-[(4-chlorophenyl)amino]-1-{(1S,2S,4R and 1R,2R,4S)-2-cyano-4-[(methylsulfonyl)amino]cyclohexyl}-1H-pyrazole-4-carboxamide]
9 |  | 0.12 | 7 | CC(C)(C(=O)O)c1ccc(Nc2nn([C@@H]3CCCC[C@H]3C#N)cc2C(N)=O)cc1 (single isomer, unassigned) [Example 17-43, 2-[4-({4-carbamoyl-1-[(1R,2R or 1S,2S)-2-cyanocyclohexyl]-1H-pyrazol-3-yl}amino)phenyl]-2-methylpropanoic acid]
10 |  | 0.35 | 4 | CS(=O)(=O)CCNC1CC[C@H](n2cc(C(N)=O)c(Nc3ccc(S(=O)(=O)C(F)(F)F)cc3)n2)[C@@H](C#N)C1 (single isomer, unassigned) [Example 28-148, 1-[(1S,2S or 1R,2R)-2-cyano-4-{[2-(methylsulfonyl)eth-yl]amino}cyclohexyl]-3-({4-[(trifluoromethyl)sulfon-yl]phenyl}amino)-1H-pyrazole-4-carboxamide]

From patent US8962608B2, “Cycloalkylnitrile pyrazole carboxamides as janus kinase inhibitors” (Merck Sharp & Dohme Corp., priority 2011, dated 2015)
